# Test results reported in publication PMC6459286, “Intestinal TGR5 agonism improves hepatic steatosis and insulin sensitivity in Western diet-fed mice” (American Journal of Physiology - Gastrointestinal and Liver …, 2019).
# Marks after values point to notes of the source that are not given here.
# Tests used:
# gallbladder emptying = assay: Gallbladder emptying in mice; conditions: CD-1 mice, single oral dose; RDX8940 30 and 100 mg/kg, INT-777 30 mg/kg
# [1] = Caco-2 bidirectional permeability assay; conditions: human, Caco-2; for recovery: Caco-2, Recovery
# MDCK cell monolayers = assay: MDCK bidirectional permeability assay
# Caco-2 cell monolayers = assay: Caco-2 bidirectional permeability assay
# [2] = test system: C57BL/6 mice fed Western diet; assay: Western diet-fed mice (NAFLD and mild insulin resistance model); format: in vivo; conditions: for 4-h fasted plasma glucose vs vehicle: days 15 and 29, agent alone
# Method: Six-week-old male C57BL/6 mice (Taconic) were fed Western diet chow (Harlan Teklad TD.88137, 21.2% fat, 0.2% cholesterol, 42.0% kcal from fat) for 10 wk to model NAFLD and mild insulin resistance. […] An additional vehicle (administered orally twice daily) control group (lean) was fed standard chow (Harlan Teklad 2018) throughout the study (n = 10). […], mice were fasted for 4 h after the first dose, and blood was then collected via the tail vein for measurement of plasma glucose and insulin concentrations using a glucometer (Abbott Animal Health, Abbott Park, IL) and an MSD immunoassay (Meso Scale Discovery), respectively. On day 29, mice were fasted longer (a total of 7–8 h), were anesthetized, and had blood collected via cardiac puncture for the measurement of GLP-1 levels. Mice were then euthanized under anesthesia for the collection of liver tissue. Hepatic triglyceride and cholesterol content were determined at the University of California, Davis, CA, using the Folch method ([17]).
# [3] = test system: intestinal L-cell hormones (aGLP-1, tGLP-1, tGLP-2, PYY); assay: Secretion of intestinal L-cell hormones in mice fed a standard diet; format: in vivo, C57BL/6 mice; conditions: repeat dosing 4 days, 8 h
# Method: Adult male C57BL/6 mice (Taconic) fed standard chow (Harlan Teklad 2018) were dosed orally with vehicle (2% DMSO, 10% HPβCD, 10 mM PBS-HCl) or RDX8940 in separate experiments, as described below. After dosing, mice were anesthetized, and blood was collected via cardiac puncture into K3EDTA-containing tubes (Greiner Bio-one); then, the mice were euthanized. If active GLP-1 (aGLP-1) concentrations were measured, sitagliptin and aprotinin were added to the tubes before blood collection. Blood was processed to plasma for the measurement of incretins; aGLP-1, tGLP-1, and PYY concentrations were assessed using MSD immunoassays (Meso Scale Discovery), whereas total GLP-2 (tGLP-2) concentrations were quantified using a mouse GLP-2 ELISA (ALPCO, Salem, NH).
# In the first experiment, mice were administered vehicle or a single dose of RDX8940 (10, 30, or 100 mg/kg), fasted, and plasma tGLP-1 concentrations were measured 8 h after dose. In a second experiment, mice were administered repeated doses of vehicle or RDX8940 30 mg/kg twice daily over 4 days. After the last dose, the mice were fasted and plasma tGLP-1 concentrations were measured 8 h later. […] After the single or last dose, the mice were fasted, and plasma concentrations of aGLP-1, tGLP-1, tGLP-2, and PYY were measured 8, 10, and 12 h later. […]
# C57BL/6 mice fed HFCD = assay: GLP-1 and GLP-2 agonists in HFCD-fed mice; format: in vivo; conditions: for Plasma glucose: 4-h fasted; for Plasma glucose / Plasma total cholesterol / Plasma triglycerides: day 28, means ± SE; for Plasma total bilirubin levels: data not shown; for Body weight: day 33, liraglutide 200 µg/kg or teduglutide 400 µg/kg sc twice daily, means ± SE; for Plasma insulin: day 34, means ± SE; for HFCD-increased hepatic expression of genes involved in inflammation and fibrotic processes: liver RNA sequencing
# Method: At 19 wk old, mice began treatment. […] Mice were weighed each week. Before treatment and on days 14 and 28 of treatment, the mice were fasted for 4 h, and blood was then collected via the tail vein and processed to plasma for measurement of alanine aminotransferase (ALT), aspartate aminotransferase (AST), alkaline phosphatase (AP), glucose, triglycerides, and total cholesterol using an ACE Axcel clinical analyzer (Alfa Wassermann, West Caldwell, NJ). After 34 days of treatment, the mice were fasted for 6–8 h and were euthanized under anesthesia. Blood was collected and processed to plasma for measurement of insulin [using an MSD immunoassay (Meso Scale Discovery)], and ALT, AST, AP, and total bilirubin levels [using an ACE Axcel clinical analyzer (Alfa Wassermann)]. The entire liver was collected and weighed, and samples of liver were weighed for measurement of triglycerides and total cholesterol levels at University of California, Davis, CA [using the Folch method ([17])]; histological assessments of steatosis, inflammation, and fibrosis were performed using hematoxylin-and-eosin stains, and Sirius red stains (Wax-it Histology Services, Vancouver, BC, Canada and Pacific Tox Path, Ellensburg, WA). Scoring of hepatic pathology was conducted according to descriptions provided by Thoolen et al. ([32]). For gene expression studies, total RNA from mouse liver tissues was isolated using a RNeasy 96 universal tissue kit (Qiagen, Hilden, Germany). A gene expression library was prepared with 100 ng of each RNA sample using a TruSeq Stranded mRNA Library NeoPrep kit (Illumina, Hayward, CA). Library samples were subsequently multiplexed and sequenced using an Illumina NextSeq 500 sequencer (San Diego, CA). Sequences of two 75-base pair ends were obtained for all samples and mapped to the mouse transcriptome, using STAR (Spliced Transcripts Alignment to a Reference) alignment with default parameters (Basespace Cloud, Illumina) and normalized using trimmed mean of M-values method in EdgeR software (Bioconductor; https://www.bioconductor.org/). Differentiation gene expression analysis was evaluated using EdgeR. R platform (https://www.r-project.org/) was used for principal component analysis and heat map analysis. Gene ontology and network correlation analysis were performed using Gorilla (http://cbl-gorilla.cs.technion.ac.il/) and WGNCA (https://horvath.genetics.ucla.edu/html/CoexpressionNetwork/Rpackages/WGCNA/).
# P-gp = assay: MDCK bidirectional permeability assay; conditions: dog; for recovery: + verapamil 100 μM
compound,measurement,setting,value
INT-777,"Gallbladder emptying (gallbladder weight, egg yolk vs saline)",gallbladder emptying,inhibition of gallbladder emptying
CC(CCc1ccccc1)NCC(O)c1ccc(O)c(C(N)=O)c1 (stereo not shown) [Labetalol],Papp A→B at 10 µM,[1],19.4 ×10⁻⁶ cm/s
same,Papp B→A at 10 µM,[1],31.6 ×10⁻⁶ cm/s
same,recovery,[1]; A→B,64%
same,recovery,[1]; B→A,80%
CC(C)NCC(O)COc1cccc2ccccc12 (stereo not shown) [Propranolol],Papp A→B,"MDCK cell monolayers; 10 μM, without verapamil",14.19 cm/s × 10^−6
same,Papp B→A,"MDCK cell monolayers; 10 μM, without verapamil",7.03 cm/s × 10^−6
same,"Recovery, B→A",MDCK cell monolayers; + verapamil 100 μM,98%
same,"Recovery, A→B",Caco-2 cell monolayers; Caco-2,56%
same,"Recovery, B→A",Caco-2 cell monolayers; Caco-2,78%
same,Papp A→B,"Caco-2 cell monolayers; Caco-2, 10 μM",67.06 cm/s × 10^−6
same,Papp B→A,"Caco-2 cell monolayers; Caco-2, 10 μM",19.62 cm/s × 10^−6
CC#CCn1c(N2CCC[C@@H](N)C2)nc2c1c(=O)n(Cc1nc(C)c3ccccc3n1)c(=O)n2C [linagliptin],4-h fasted plasma insulin vs vehicle,"[2]; day 29, agent alone",lowered
same,4-h fasted plasma glucose vs vehicle,[2],lowered
same,aGLP-1 levels in the portal vein vs vehicle,[3]; monotherapy (RDX8940 30 mg/kg b.i.d.; linagliptin 10 mg/kg q.d.),did not significantly affect
same,Systemic concentrations of aGLP-1 vs vehicle,[3]; monotherapy,did not significantly increase
CNC(=C[N+](=O)[O-])NCCSCc1ccc(CN(C)C)o1 [Ranitidine],Papp A→B at 10 µM,[1],0.91 ×10⁻⁶ cm/s
same,Papp B→A at 10 µM,[1],3.02 ×10⁻⁶ cm/s
same,efflux ratio at 10 µM,[1],3.34
same,recovery,[1]; A→B,78%
same,recovery,[1]; B→A,87%
teduglutide,Hepatic total cholesterol content vs vehicle,C57BL/6 mice fed HFCD,significantly decreased
same,Hepatic triglyceride content vs vehicle,C57BL/6 mice fed HFCD,significantly decreased
same,Hepatic weight vs vehicle,C57BL/6 mice fed HFCD,significantly decreased
same,Plasma ALT levels vs vehicle,C57BL/6 mice fed HFCD,significantly decreased
same,Plasma AP levels vs vehicle,C57BL/6 mice fed HFCD,significantly decreased
same,Plasma AST levels vs vehicle,C57BL/6 mice fed HFCD,significantly decreased
same,Plasma glucose,C57BL/6 mice fed HFCD,205 ± 5 mg/dL
same,Plasma total bilirubin levels,C57BL/6 mice fed HFCD,Neither liraglutide nor teduglutide significantly affected
same,Plasma total cholesterol,C57BL/6 mice fed HFCD,279 ± 16 mg/dL
same,Plasma triglycerides,C57BL/6 mice fed HFCD,84 ± 1 mg/dL
same,Body weight,C57BL/6 mice fed HFCD,37.9 ± 0.9 g
same,Plasma insulin,C57BL/6 mice fed HFCD,0.95 ± 0.20 ng/mL
same,HFCD-increased hepatic expression of genes involved in inflammation and fibrotic processes,C57BL/6 mice fed HFCD,abrogated this effect in many cases
same,Fibrosis score,C57BL/6 mice fed HFCD; median,2
same,Macrovesicular steatosis score,C57BL/6 mice fed HFCD; median,2.00 ^*
same,Microvesicular steatosis score,C57BL/6 mice fed HFCD; median,2.0
COc1cc2c(c(OC)c1OC)-c1ccc(OC)c(=O)cc1[C@@H](NC(C)=O)CC2 [Colchicine],Papp A→B at 10 µM,P-gp,0.85 ×10⁻⁶ cm/s
same,Papp B→A at 10 µM,P-gp,2.31 ×10⁻⁶ cm/s
same,efflux ratio at 10 µM,P-gp,2.72
same,recovery,P-gp; A→B,120%
same,recovery,P-gp; B→A,113%
same,Papp A→B at 10 µM,[1],0.23 ×10⁻⁶ cm/s
same,Papp B→A at 10 µM,[1],6.18 ×10⁻⁶ cm/s
same,efflux ratio at 10 µM,[1],27.4
same,recovery,[1]; A→B,69%
same,recovery,[1]; B→A,80%
liraglutide,Hepatic total cholesterol content vs vehicle,C57BL/6 mice fed HFCD,significantly decreased
same,Hepatic triglyceride content vs vehicle,C57BL/6 mice fed HFCD,significantly decreased
same,Hepatic weight vs vehicle,C57BL/6 mice fed HFCD,significantly decreased
same,Plasma ALT levels vs vehicle,C57BL/6 mice fed HFCD,significantly decreased
same,Plasma AP levels vs vehicle,C57BL/6 mice fed HFCD,significantly decreased
same,Plasma AST levels vs vehicle,C57BL/6 mice fed HFCD,significantly decreased
same,Plasma glucose,C57BL/6 mice fed HFCD,185 ± 13 mg/dL
same,Plasma total bilirubin levels,C57BL/6 mice fed HFCD,Neither liraglutide nor teduglutide significantly affected
same,Plasma total cholesterol,C57BL/6 mice fed HFCD,230 ± 16 mg/dL
same,Plasma triglycerides,C57BL/6 mice fed HFCD,59 ± 3 mg/dL
same,Body weight,C57BL/6 mice fed HFCD,31.4 ± 0.8 g
same,Plasma insulin,C57BL/6 mice fed HFCD,0.40 ± 0.11 ng/mL
same,HFCD-increased hepatic expression of genes involved in inflammation and fibrotic processes,C57BL/6 mice fed HFCD,abrogated this effect in many cases
same,Fibrosis score,C57BL/6 mice fed HFCD; median,2
same,Microvesicular steatosis score,C57BL/6 mice fed HFCD; median,0.5 ^****
same,4-h fasted plasma insulin vs vehicle,"[2]; day 29, agent alone",lowered
same,Hepatic triglyceride levels,"[2]; day 29, agent alone, RDX8940 P < 0.001",reduced
same,Hepatic cholesterol levels,"[2]; day 29, agent alone, RDX8940 P < 0.01",reduced
same,Liver weight,"[2]; day 29, agent alone, RDX8940 P < 0.05",reduced
same,4-h fasted plasma glucose vs vehicle,[2],lowered
